Values of other authors, collected in US12653843B2, “Compositions comprising extracellular matrix of primitive animal species and related methods” (University of Pittsburgh—Of the Commonwealth System of …, priority 2016, dated 2026).

Molecular target: ErbB2 (Homo sapiens, UniProt P04626)
Sequence (P04626 23-1255, species assumed): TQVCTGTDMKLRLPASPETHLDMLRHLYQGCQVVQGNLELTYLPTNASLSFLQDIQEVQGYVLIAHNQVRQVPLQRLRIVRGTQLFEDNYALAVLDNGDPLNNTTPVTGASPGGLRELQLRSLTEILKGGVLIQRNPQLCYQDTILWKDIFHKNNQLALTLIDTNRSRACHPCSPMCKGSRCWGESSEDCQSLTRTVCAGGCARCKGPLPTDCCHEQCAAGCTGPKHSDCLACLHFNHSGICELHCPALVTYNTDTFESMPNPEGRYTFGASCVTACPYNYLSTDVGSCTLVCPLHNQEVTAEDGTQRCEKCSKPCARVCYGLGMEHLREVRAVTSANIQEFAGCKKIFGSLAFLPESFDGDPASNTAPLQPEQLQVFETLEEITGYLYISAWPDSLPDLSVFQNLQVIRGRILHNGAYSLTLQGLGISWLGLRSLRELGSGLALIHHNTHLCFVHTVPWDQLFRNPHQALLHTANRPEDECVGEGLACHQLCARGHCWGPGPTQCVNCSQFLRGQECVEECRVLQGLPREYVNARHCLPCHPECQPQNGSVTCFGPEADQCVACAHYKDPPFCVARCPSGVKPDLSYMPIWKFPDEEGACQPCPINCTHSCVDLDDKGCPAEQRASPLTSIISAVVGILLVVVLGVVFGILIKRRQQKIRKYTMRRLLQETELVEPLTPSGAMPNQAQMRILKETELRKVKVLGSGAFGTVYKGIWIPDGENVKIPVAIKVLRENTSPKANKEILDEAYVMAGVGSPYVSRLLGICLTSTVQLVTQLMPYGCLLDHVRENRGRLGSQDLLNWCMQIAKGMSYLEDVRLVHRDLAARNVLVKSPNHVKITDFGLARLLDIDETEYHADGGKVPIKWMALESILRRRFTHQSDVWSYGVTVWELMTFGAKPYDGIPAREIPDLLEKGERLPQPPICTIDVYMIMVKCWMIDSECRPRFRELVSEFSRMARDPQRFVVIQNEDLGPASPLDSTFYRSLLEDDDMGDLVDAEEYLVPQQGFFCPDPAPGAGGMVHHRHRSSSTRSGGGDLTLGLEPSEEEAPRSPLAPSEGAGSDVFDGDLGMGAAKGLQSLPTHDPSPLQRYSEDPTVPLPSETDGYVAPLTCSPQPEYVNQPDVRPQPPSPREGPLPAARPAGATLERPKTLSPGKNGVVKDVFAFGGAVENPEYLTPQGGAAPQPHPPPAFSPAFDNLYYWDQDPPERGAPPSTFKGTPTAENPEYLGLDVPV

## COc1cc(/C=C(\C#N)C(N)=O)cc(CSc2nc3ccccc3s2)c1O [AG825]
  selectivity: inhibition of ErbB2 autophosphorylation versus ErbB1 (EGFR): ~60 fold
